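Results reflect a 48-hour exposure of cells in 96-well plates to compound at five concentrations. GI50 marks 50% less growth.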 Active and inactive are the calls of the source. No stated cut-off is given here; in the data, active = GI50 up to about 1.1 µM and inactive = higher.

Common to all, as to experiment: DTP human tumour cell line panel, 48 h
For test [1], the system named is OVCAR-8.
Test [2] deals with HCT-15.
Test [3] relates to SK-OV-3.
Test [4] deals with HOP-92.
In test [5] the test system is NCI-H226.
The test system of test [6] is OVCAR-5.
Test [7] concerns SK-MEL-28.
Test [8] relates to K562.
Test [9] deals with MOLT-4.
Test [10] deals with HCC 2998.
For test [11], the system named is SW-620.
Test [12] has as its system NCI-H23.
Test [13] concerns RPMI-8226.
Test [14] relates to OVCAR-3.
Test [15] has as its system SF-539.
Test [16] has as its system CCRF-CEM.
Test [17] deals with M14.
Test [18] deals with DU-145.
Test [19] concerns T47D.
For test [20], the system named is MDA-MB-231.

Turning to `CCOC(=O)C12CN(C34CC5CC(CC(C5)C3)C4)CC(C(=O)OCC)(C1=O)C(c1ccccc1)OC2c1ccccc1` (stereo not drawn), the GI50 in test [1] was > 100 µM (inactive); in [2], more than 100 µM; in test [3] it was > 100 µM (inactive); in test [4], 2.04 µM (inactive); in test [5], 89.7 µM (inactive); in [6] it was > 100 µM (inactive). Further, the GI50 in [7] is > 100 µM (inactive); in test [8], 31.4 µM (inactive); in test [9], 35.6 µM (inactive); in test [10] it was > 100 µM (inactive); in test [11], > 100 µM (inactive); in [12] it was 47.4 µM (inactive). Also, the GI50 was 16.5 µM (inactive) in [13]; > 100 µM (inactive) in test [14]; > 10 µM (inactive) in test [15]; 44.3 µM (inactive) in test [16]; > 100 µM (inactive) in test [17].

For the compound `C[C@H](O)CCC(=O)c1ccoc1`, the GI50 in [1] was > 100 µM (inactive); in [2], more than 100 µM; in test [3], > 100 µM (inactive); in [4], > 100 µM (inactive); in [5] it was > 100 µM (inactive); in test [6] it was > 100 µM (inactive). In addition, the GI50 in test [7] was > 100 µM (inactive); in test [8], > 100 µM (inactive); in [9] it was > 100 µM (inactive); in [10] it was > 66.1 µM (inactive); in [11] it was > 100 µM (inactive); in test [12] it was > 100 µM (inactive). Also, the GI50 in [13], in test [14], in test [15], in test [16] and in test [17] was > 100 µM (inactive) throughout.

As to `COc1ccccc1/C=C\C(=O)C1COCN1` (stereo not drawn), the GI50 in [1] is 14.5 µM (inactive); in test [2], 14.7 µM; in test [3], 10.2 µM (inactive); in [5] it was 18.7 µM (inactive); in [6] it was 24.7 µM (inactive); in [18], 17.3 µM (inactive). The GI50 was 18 µM (inactive) in test [7]; 6.98 µM (inactive) in test [8]; 3.95 µM (inactive) in [9]; 4.36 µM (inactive) in test [11]; > 100 µM (inactive) in test [12]; 2.24 µM (inactive) in test [13]. Besides, the GI50 in test [14] is 8.24 µM (inactive); in test [15], 20.5 µM (inactive); in test [19], 1.45 µM (inactive); in [16], 3.77 µM (inactive); in test [20], 17.6 µM (inactive); in test [17], 50.8 µM (inactive).

For the compound `O=C(O)CC(NC(=O)/C(=C/c1ccccc1O)NC(=O)c1ccccc1)C(=O)O` (stereo not drawn), the GI50 is > 100 µM (inactive) in test [1]; 59.4 µM in test [2]; > 100 µM (inactive) in test [3]; > 100 µM (inactive) in [5]; > 100 µM (inactive) in test [6]; > 100 µM (inactive) in [7]. In addition, the GI50 was 74.1 µM (inactive) in test [8]; 52.4 µM (inactive) in test [9]; > 100 µM (inactive) in test [10]; > 100 µM (inactive) in test [11]; > 100 µM (inactive) in test [12]; 82.6 µM (inactive) in test [13]. Besides, the GI50 in [14] was > 100 µM (inactive); in test [15], > 100 µM (inactive); in test [19], 79.4 µM (inactive); in test [16], 33.9 µM (inactive); in test [20], > 100 µM (inactive); in test [17], > 100 µM (inactive).

For the compound `CN(C)CCCN1CCc2c([nH]c3ccccc23)C1c1cccnc1` (stereo not drawn), the GI50 was > 100 µM (inactive) in test [1]; more than 100 µM in [2]; > 100 µM (inactive) in [3]; 33.8 µM (inactive) in test [4]; > 100 µM (inactive) in test [5]; > 100 µM (inactive) in test [6]. Also, the GI50 in test [7] is 80 µM (inactive); in test [8], > 100 µM (inactive); in [9], > 100 µM (inactive); in [10] it was > 100 µM (inactive); in [11] it was > 100 µM (inactive); in test [12], > 100 µM (inactive). In addition, the GI50 in test [13], in [14], in [15], in [16] and in [17] was > 100 µM (inactive) throughout.

For the compound `NC(=S)N1N=C2c3ccccc3CC[C@@H]2[C@@H]1c1ccccc1`, the GI50 in [1] was 9.75 µM (inactive); in test [2] it was 3.33 µM; in test [3], 9.73 µM (inactive); in test [4] it was 11.2 µM (inactive); in test [5], 4.65 µM (inactive); in test [6], 24.3 µM (inactive). Further, the GI50 was 9.84 µM (inactive) in [7]; 2 µM (inactive) in test [8]; 4.05 µM (inactive) in test [9]; 6.78 µM (inactive) in test [10]; 3.84 µM (inactive) in [11]; 4.68 µM (inactive) in test [12]. Besides, the GI50 in test [13] was 5.61 µM (inactive); in [14], 2.92 µM (inactive); in test [15], 4.88 µM (inactive); in [16], 3.24 µM (inactive); in test [17], 4.4 µM (inactive).

In the case of `NS(=O)(=O)c1ccccc1C(=O)N/N=C(\c1nc2ccc([N+](=O)[O-])cc2[nH]c1=O)C(O)c1ccc([N+](=O)[O-])cc1` (stereo not drawn), the GI50 in [1] is > 100 µM (inactive); in [2], 24.2 µM; in [3] it was > 100 µM (inactive); in [4], > 100 µM (inactive); in test [5], > 100 µM (inactive); in test [6], > 100 µM (inactive). Besides, the GI50 in test [18] is > 100 µM (inactive); in [7] it was > 100 µM (inactive); in test [8], 56.5 µM (inactive); in [9] it was > 100 µM (inactive); in test [10], > 100 µM (inactive); in test [11] it was > 100 µM (inactive). For the same compound, the GI50 in test [12] was > 100 µM (inactive); in test [13], 58.5 µM (inactive); in test [14] it was > 100 µM (inactive); in [15] it was 49.2 µM (inactive); in [16] it was 71.1 µM (inactive); in test [17], > 100 µM (inactive).

For the compound `Cc1cc2ccccc2oc(=O)/c1=N\Nc1ccccc1`, the GI50 in test [1] is 28.8 µM (inactive); in [2] it was more than 100 µM; in test [3], 21.5 µM (inactive); in test [4], 73.8 µM (inactive); in test [5], 47.9 µM (inactive); in test [6], > 100 µM (inactive). Further, the GI50 is > 100 µM (inactive) in [18]; > 100 µM (inactive) in test [7]; 14.5 µM (inactive) in [8]; > 100 µM (inactive) in test [9]; > 100 µM (inactive) in test [10]; 23 µM (inactive) in [11]. Besides, the GI50 in test [12] is 78.5 µM (inactive); in test [13] it was > 100 µM (inactive); in [14], > 100 µM (inactive); in [15], 37.8 µM (inactive); in test [16], > 100 µM (inactive); in test [20], 25.6 µM (inactive). In [17], the GI50 was > 100 µM (inactive).

Take `CCOC(=O)Nn1cnnc1Cc1ccccc1`: the GI50 in test [1] is > 100 µM (inactive); in [2] it was more than 100 µM; in test [3], > 100 µM (inactive); in test [4], > 100 µM (inactive); in [5], > 100 µM (inactive); in test [6] it was > 100 µM (inactive). Moreover, the GI50 in [8], in test [9], in test [10], in test [11], in test [12] and in test [13] was > 100 µM (inactive) throughout. The GI50 in [14], in [15], in [19], in [16], in test [20] and in [17] was > 100 µM (inactive) each time.

In the case of `COC(=O)/C=C/c1c(CC=C(C)C)ncn1C`, the GI50 is 40.2 µM (inactive) in [1]; 7.85 µM in [2]; 47.9 µM (inactive) in test [3]; 78.7 µM (inactive) in test [4]; > 38.5 µM (inactive) in test [5]; > 100 µM (inactive) in test [6]. In addition, the GI50 in test [7] was > 49.5 µM (inactive); in test [8], 4.63 µM (inactive); in [9], 5.31 µM (inactive); in [10], 54.6 µM (inactive); in test [11], 6.79 µM (inactive); in [12], 37.7 µM (inactive). In addition, the GI50 in test [13] is 20.6 µM (inactive); in test [14] it was 16.9 µM (inactive); in test [15] it was 17.8 µM (inactive); in test [16] it was > 41.3 µM (inactive); in test [17] it was 16.4 µM (inactive).

With `O=C(Nc1ccccc1-c1nn(C(=S)Nc2ccccc2)c(=S)n(C(=S)Nc2ccccc2)c1=O)C(F)(F)F`, the GI50 in [1] was 23.9 µM (inactive); in [2], 20.1 µM; in [3], > 87.3 µM (inactive); in test [4], 12.8 µM (inactive); in test [5] it was 17.2 µM (inactive); in test [6], 49.9 µM (inactive). The GI50 was 27.6 µM (inactive) in test [7]; 18.8 µM (inactive) in test [8]; 7.85 µM (inactive) in test [9]; 25.3 µM (inactive) in [10]; 23.9 µM (inactive) in [11]; 15.5 µM (inactive) in [12]. Also, the GI50 in [13] is 11.1 µM (inactive); in [14], 21.6 µM (inactive); in test [15], 36.1 µM (inactive); in test [16], 13.3 µM (inactive); in test [17] it was 20.4 µM (inactive).

What is called GI50 is the concentration giving 50% growth inhibition.

Source of the values: ChEMBL document CHEMBL1201862, “PubChem BioAssay data set” (2004).
